{
  "source": "patent US9017938B2",
  "about": "“Use of microrna-199b-5p in medical and diagnostic field” (Advanced Accelerator Applications, priority 2009, dated 2015)",
  "key": {"HES1": {"tested_on": "HES1", "assay": "Western blotting of HES1 protein", "format": "cell-based, human", "procedure": "(§1) Thirty μg cytosolic or nuclear lysates were loaded onto 12% polyacrilamide gels, and blotted onto polyvinylidene difluoride membranes (PVDF; BioRad, Milan, Italy). The membranes were then incubated with anti-HES1 (kind gift of Dr. Tetsuo Sudo TORAY Industries, Tebiro Kamakura, Japan), a polyclonal rabbit antibody (1:500), an anti-GSK3-β (B&D Bioscience) monoclonal antibody (1:2500), an anti-c-Myc polyclonal rabbit antibody (1:200) (Santa Cruz Biotechnology, Santa Cruz, Calif., USA), an anti-GABRA6 antibody (Santa Cruz Biotechnology, Santa Cruz, USA) (1:200), an anti-MATH3 antibody (Santa Cruz Biotechnology, Santa Cruz, USA) (1:200) and an anti-cyclin D1 (1:200) polyclonal rabbit antibody (Cell Signaling). An anti-β-actin antibody (1:1.000) (Sigma) was used as the control for equal loading of cytosolic lysates and a polyclonal anti-β-laminin antibody (1:50) (Santa Cruz Biotechnology, Santa Cruz, Calif., USA) for equal loading of nuclear lysates."}, "cyclin L1 3′UTR": {"tested_on": "cyclin L1 3′UTR", "assay": "Luciferase reporter assay, full-length 3′UTR", "format": "cell-based", "details": "miR-199b-5p over-expression in Daoy cells", "procedure": "(§2) To determine the activity of miR-199b-5p on repression of the luciferase-3′UTR fused constructs, the pREYZO-miR-199b-5p construct and the pRL-CMV-3′UTR target construct were co-transfected into HEK293 cells at a ratio of 10:1, using the Polyfect reagent (Qiagen) together with the pGL3 basic vector, in the absence and presence of 2-OM (400 nM). Luciferase activities were analysed using a Dual Luciferase Reporter Assay system (Promega, Madison, Wis.)."}, "NHLH2 3′UTR": {"tested_on": "NHLH2 3′UTR", "assay": "Luciferase reporter assay, full-length 3′UTR", "format": "cell-based", "details": "miR-199b-5p over-expression in Daoy cells", "procedure": "as §2"}, "Nanog 3′UTR": {"tested_on": "Nanog 3′UTR", "assay": "Luciferase reporter assay, full-length 3′UTR", "format": "cell-based", "details": "miR-199b-5p over-expression in Daoy cells", "procedure": "as §2"}, "Daoy cells": {"tested_on": "Daoy cells", "assay": "FACS cell-cycle analysis (propidium iodine)", "format": "cell-based, human", "procedure": "The flow cytometry analysis of S-phase fractions and cell-cycle kinetics were carried out using a FACSCalibur (Becton Dickinson, San Jose, Calif.) using CELL Quest version 3.3 software. The CD133 studies were carried out using the same instrument, with antibodies from Miltenyi Biotec (Auburn, Calif.), according to the manufacturer instructions. In brief, the cells were blocked in Fc receptor blocking reagent and incubated with an anti-CD133/1 (AC133)-phycoerythrin antibody (Miltenyi Biotec), for 10 min in the dark at 4° C. The cells were then washed and resuspended in PBS. Cells expressing higher levels of CD133 than the immunoglobulin G (IgG) controls were considered positive. For analyses of the side populations, cells […] were incubated with Hoechst 33342 (5 μmol/L; Sigma) for 90 min at 37° C. in EMEM containing 2% FBS. To ensure the correct identification of the side population cells, the cells were incubated as above with the addition of 50 μM verapamil (Sigma)."}, "ONS76 cells": {"tested_on": "ONS76 cells", "assay": "Proliferation assay MTS, ONS76", "format": "cell-based", "details": "transient transfection vs mock-transfected cells", "procedure": "(§3) Cell proliferation was determined using the CellTiter96 AQueous Non-Radioactive Cell Proliferation Assay Kit (Promega Madison, Wis.). The cells were seeded into 96-well plates at a density of 1×10^3 cells/well in EMEM without or with FBS. After 0, 24, 48 and 72 h, MTS ([3-(4,5-dimethylthiazol-2-yl)-5-(3-carboxymethoxyphenyl)-2-(4-sulfophenyl)-2H-tetrazolium]) and PMS (phenazine methosulfate) were added to each well and after 4 h the absorbance of each well was measured at 490 nm (OD490) using Multilabel counter Victor^3 (Perkin Elmer). Each condition was performed with five wells and each experiment was repeated twice."}, "GSK3-β": {"tested_on": "GSK3-β", "assay": "Western blotting of GSK3-β", "format": "cell-based, human", "details": "stable 199bSC1 clone", "procedure": "as §1"}, "D283MED cells": {"tested_on": "D283MED cells", "assay": "Proliferation assay MTS, D283MED", "format": "cell-based, human", "details": "transient transfection vs mock-transfected cells", "procedure": "as §3"}, "[1]": {"details": "stable 199bSC1 clone vs empty vector clone"}},
  "data": [
    {"substance": "miR-199b-5p: mature microRNA CCCAGUGUUUAGACUAUCUGUUC (SEQ ID NO:11); over-expressed from pre-miR-199b construct, e.g. stable Daoy clones 199bSC1, 199bMC1 (listed as RNA, chemistry not fully specified)", "values": [
      {"measurement": "endogenous HES1 protein level", "setting": "HES1; D283 cells, transient transfection vs empty vector", "result": "lowered the levels of the endogenous HES1 protein"},
      {"measurement": "endogenous HES1 protein level", "setting": "HES1; HEK293 cells, transient transfection, 48 h", "result": "lowered the levels of the endogenous HES1 protein"},
      {"measurement": "HES1 protein level", "setting": "HES1; stable Daoy clone 199bSC1", "result": "no detectable HES1"},
      {"measurement": "HES1 protein level", "setting": "HES1; three stable Daoy clones over-expressing miR-199b-5p", "result": "reduced HES1 protein levels"},
      {"measurement": "down-regulation of reporter carrying cyclin L1 3′UTR", "setting": "cyclin L1 3′UTR", "result": "did not detect any down-regulatory effects"},
      {"measurement": "down-regulation of reporter carrying NHLH2 3′UTR", "setting": "NHLH2 3′UTR", "result": "did not detect any down-regulatory effects"},
      {"measurement": "down-regulation of reporter carrying Nanog 3′UTR", "setting": "Nanog 3′UTR", "result": "did not detect any down-regulatory effects"},
      {"measurement": "changes in cell cycle", "setting": "Daoy cells; stable 199bMC1 clone", "result": "did not show significant changes"},
      {"measurement": "decrease in S-phase fractions", "setting": "Daoy cells; [1]", "result": 31, "unit": "%"},
      {"measurement": "increase in cells in G0-G1", "setting": "Daoy cells; [1]", "result": 15, "unit": "%"},
      {"measurement": "proliferation", "setting": "ONS76 cells", "result": "decreased proliferation"},
      {"measurement": "GSK3-β protein levels", "setting": "GSK3-β", "result": "did not show any significant reductions"},
      {"measurement": "proliferation", "setting": "D283MED cells", "result": "decreased proliferation"}
    ]}
  ]
}
